Data: US11466010B2, “Toll-like receptor 8 (TLR8) specific antagonists and methods of making and uses thereof” (The Regents of the University of Colorado, a body corporate, priority 2017, dated 2022)

Key:
[1] = target: T1, mouse TLR9 (Mus musculus, UniProt Q9EQU3); assay: IL-12p40 production in splenocytes from hTLR8tg/TLR7-KO mice, TLR9 agonist 1018; type: cell-based; settings: 1018 7.1 ug/mL, 48 hours
T1 construct: endogenous in cells; host or cells: primary splenocytes from hTLR8tg/TLR7-KO mice
T1 sequence (Q9EQU3 26-1032): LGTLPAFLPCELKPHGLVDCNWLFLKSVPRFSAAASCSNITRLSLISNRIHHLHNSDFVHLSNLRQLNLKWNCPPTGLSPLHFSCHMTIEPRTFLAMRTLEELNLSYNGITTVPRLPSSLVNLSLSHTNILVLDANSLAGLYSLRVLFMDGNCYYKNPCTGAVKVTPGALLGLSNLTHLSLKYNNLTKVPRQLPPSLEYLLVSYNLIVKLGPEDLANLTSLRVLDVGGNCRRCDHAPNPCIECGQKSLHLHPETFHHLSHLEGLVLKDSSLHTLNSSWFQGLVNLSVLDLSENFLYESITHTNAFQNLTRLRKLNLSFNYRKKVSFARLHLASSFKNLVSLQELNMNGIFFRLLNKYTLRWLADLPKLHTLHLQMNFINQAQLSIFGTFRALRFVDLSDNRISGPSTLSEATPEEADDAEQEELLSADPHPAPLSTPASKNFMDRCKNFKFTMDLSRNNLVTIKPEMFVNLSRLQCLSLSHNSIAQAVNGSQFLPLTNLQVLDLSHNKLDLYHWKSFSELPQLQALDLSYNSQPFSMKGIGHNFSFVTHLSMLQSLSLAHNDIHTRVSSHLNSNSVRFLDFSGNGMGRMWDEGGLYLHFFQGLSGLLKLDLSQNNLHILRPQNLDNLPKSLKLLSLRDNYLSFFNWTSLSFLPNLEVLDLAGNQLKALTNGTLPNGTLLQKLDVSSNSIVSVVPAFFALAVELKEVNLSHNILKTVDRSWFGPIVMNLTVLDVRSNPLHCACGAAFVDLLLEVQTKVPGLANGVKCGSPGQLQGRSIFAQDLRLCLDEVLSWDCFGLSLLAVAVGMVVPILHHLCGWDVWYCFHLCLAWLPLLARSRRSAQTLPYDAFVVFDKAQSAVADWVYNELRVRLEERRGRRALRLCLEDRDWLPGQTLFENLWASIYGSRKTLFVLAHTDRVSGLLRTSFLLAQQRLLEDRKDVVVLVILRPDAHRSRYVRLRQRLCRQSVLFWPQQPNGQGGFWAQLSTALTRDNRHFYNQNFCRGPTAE
Protocol: (§1) Activity on primary mouse splenocytes: To assess TLR8 and TLR9 activity, spleens were isolated from TLR7 knock-out mice harboring a human TLR8 transgene (hTLR8tg/TLR7-KO). Splenocytes were prepared by dissociation through a cell strainer and removal of red blood cells with lysis buffer. Splenocytes were incubated with a dilution series of compounds and a constant amount of a TLR8 agonist (RNA oligonucleotide ORN8L) or a TLR9 agonist (CpG-containing phosphorothioate DNA oligonucleotide 1018). After 48 hours, culture supernatants were collected and analyzed for IL-12p40 production. Curves represent activity from a single spleen.

[2] = target: T2, human TLR8 transgene (Homo sapiens, UniProt Q9NR97); assay: IL-12p40 production in splenocytes from hTLR8tg/TLR7-KO mice, TLR8 agonist ORN8L; type: cell-based, mouse; settings: ORN8L 100 ug/mL, 48 hours
T2 construct: expressed in transfected cells; host or cells: primary splenocytes from hTLR8tg/TLR7-KO mice
T2 sequence (Q9NR97 27-1041): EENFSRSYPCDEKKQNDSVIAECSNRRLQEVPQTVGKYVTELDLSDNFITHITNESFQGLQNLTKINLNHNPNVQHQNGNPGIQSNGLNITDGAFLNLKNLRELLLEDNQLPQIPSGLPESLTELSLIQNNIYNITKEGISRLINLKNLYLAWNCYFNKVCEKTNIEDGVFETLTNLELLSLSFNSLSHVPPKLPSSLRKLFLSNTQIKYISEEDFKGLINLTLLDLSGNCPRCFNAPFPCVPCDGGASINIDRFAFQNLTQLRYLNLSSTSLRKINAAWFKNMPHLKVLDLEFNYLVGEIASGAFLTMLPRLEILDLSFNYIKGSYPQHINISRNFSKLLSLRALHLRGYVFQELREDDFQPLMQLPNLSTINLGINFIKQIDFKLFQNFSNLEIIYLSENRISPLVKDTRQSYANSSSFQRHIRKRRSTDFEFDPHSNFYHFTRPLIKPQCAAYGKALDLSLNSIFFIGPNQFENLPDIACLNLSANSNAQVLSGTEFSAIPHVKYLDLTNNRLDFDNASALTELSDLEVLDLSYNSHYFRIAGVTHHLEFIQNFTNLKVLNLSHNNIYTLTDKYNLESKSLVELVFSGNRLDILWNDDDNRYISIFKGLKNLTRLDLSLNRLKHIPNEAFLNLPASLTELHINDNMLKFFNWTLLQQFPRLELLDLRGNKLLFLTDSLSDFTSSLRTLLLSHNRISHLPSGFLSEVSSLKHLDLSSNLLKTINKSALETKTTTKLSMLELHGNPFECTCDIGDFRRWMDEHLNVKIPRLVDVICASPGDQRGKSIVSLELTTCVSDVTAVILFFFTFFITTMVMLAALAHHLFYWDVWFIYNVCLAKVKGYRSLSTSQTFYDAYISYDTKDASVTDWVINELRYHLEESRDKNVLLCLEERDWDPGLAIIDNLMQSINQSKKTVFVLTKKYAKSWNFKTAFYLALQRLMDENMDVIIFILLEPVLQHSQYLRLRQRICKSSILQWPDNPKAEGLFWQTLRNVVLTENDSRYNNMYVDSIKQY
Protocol: as §1

| activity against mouse TLR9 [1] | IL-12p40 production as a monitor of TLR8 signaling [2] | SMILES |
| --- | --- | --- |
| no activity | inhibition | Cc1cc(-c2ccnc3cc(O)ccc23)ccc1O [Compound 11b, 2-Methyl-4-(7-hydroxyl-4-quinolinyl)-phenol] |
| no activity | inhibition | COc1ccc2c(-c3ccc(O)c(C)c3)ccnc2c1 [Compound 11a, 2-Methyl-4-(7-methoxyl-4-quinolinyl)-phenol] |
